This is an account of results in patent publication US20250154472A1, “Culture Medium for Expanding Breast Epithelial Stem Cells” (Koninklijke Nederlandse Akademie Van Wetenschappen, priority 2014, published 2025).

Holding throughout (assay type): cell-based, human
Assay [1] concerns mammary tumor organoid line W854T. Kind of assay: Low throughput drug screen, cell viability (CellTiter-Glo 2.0), W854T. The settings on record: 7 days, 1 nM-30 μM, 96-well. How it is done:
(§1) Organoids were photographed every 3-4 days (FIG. 8) and cell viability measured at day 7 using the CellTiter-Glo 2.0 assay (G9241, Promega) (FIG. 9).
(§2) All three organoid lines respond to Iressa at concentrations ˜10 μM indicating a dependence on EGFR signaling. […] Mammary tumor organoids are suitable for cell viability based low throughput drug screens in a 96-well format. We are currently testing the assay in a 384-well plate format which has been successfully established for colon cancer organoids.
On the technique in general: Cellular ATP, detected with luciferase, serves as a proxy for viable cell number.

The test system of assay [2] is mammary tumor organoid line W855T. Nature of the assay: Low throughput drug screen, cell viability (CellTiter-Glo 2.0), W855T. The settings on record: 7 days. The procedure:
as §1, §2

In assay [3] the test system is mammary tumor organoid line W859T. Kind of assay: Low throughput drug screen, cell viability (CellTiter-Glo 2.0), W859T. The settings on record: 7 days, 1 nM-30 μM, 96-well. The procedure: as §1, §2
The test system of assay [4] is mammary tumor organoid line W854T. Kind of assay: Organoid growth in medium containing Nutlin-3. The settings on record: 5 μM Nutlin-3.

Consider `COc1cc2ncnc(Nc3ccc(F)c(Cl)c3)c2cc1OCCCN1CCOCC1` [Iressa], for which the “concentration at which organoids respond (growth/viability)” value was ~10 µM in assay [1]; ~10 µM in assay [2] (1 nM-30 μM, 96-well); ~10 µM in assay [3].
Regarding `COc1ccc(C2=N[C@@H](c3ccc(Cl)cc3)[C@@H](c3ccc(Cl)cc3)N2C(=O)N2CCNC(=O)C2)c(OC(C)C)c1` [Nutlin-3], the “concentration at which organoids respond (growth/viability)” value in assay [1] and in assay [3] was > 30 µM in each case. Besides, the “growth inhibition at concentrations up 30 μM” value in assay [2] is listed as “perhaps the exception”. Besides, the “growth in medium containing the p53 stabilizer” value in assay [4] is given as “readily grew”.
